Experimental data from article PMC2831140 (Biochemistry, 2010).

Molecular target: T1, TbQSOX (Trypanosoma brucei, UniProt Q585M6)
T1 sequence (Q585M6 20-485): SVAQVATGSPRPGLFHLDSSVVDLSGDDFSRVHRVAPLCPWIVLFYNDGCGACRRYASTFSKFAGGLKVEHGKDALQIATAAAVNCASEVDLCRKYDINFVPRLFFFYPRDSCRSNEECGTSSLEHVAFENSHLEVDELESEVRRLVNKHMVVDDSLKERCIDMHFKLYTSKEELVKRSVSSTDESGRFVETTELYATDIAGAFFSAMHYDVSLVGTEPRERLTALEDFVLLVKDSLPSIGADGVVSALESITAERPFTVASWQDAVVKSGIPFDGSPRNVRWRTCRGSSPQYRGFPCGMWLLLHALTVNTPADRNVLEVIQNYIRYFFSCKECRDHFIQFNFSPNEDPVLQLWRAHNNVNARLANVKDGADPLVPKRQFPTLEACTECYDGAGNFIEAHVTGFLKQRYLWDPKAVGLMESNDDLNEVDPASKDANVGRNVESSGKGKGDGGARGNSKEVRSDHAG
Experiment: UV/Vis spectrum of bound flavin in purified protein
Type: binding
Conditions: 50 mM phosphate pH 7.5, 1 mM EDTA; prosthetic group in Erv/ALR domain

Structure (SMILES): Cc1cc2nc3c(=O)[nH]c(=O)nc-3n(C[C@H](O)[C@H](O)[C@H](O)COP(=O)(O)OP(=O)(O)OC[C@H]3O[C@@H](n4cnc5c(N)ncnc54)[C@H](O)[C@@H]3O)c2cc1C [FAD]
- UV/Vis spectrum of bound flavin in purified protein: found to be a stable, monomeric, FAD-containing protein
